Measurements published in patent US20210179666A1, “CYCLIC PEPTIDES AND METHODS OF USE THEREOF” (Regents of the University of Minnesota, priority 2019, published 2021).
Values joined by “and” are separate entries in the source; they are usually repeats but may differ in a detail not shown here. Equal values may be shown once. Read-outs that look alike come from different tables or passages of the source. Square brackets hold non-standard residues; d marks the D form. Peptide text beside a SMILES is read from it. Gly(N-(CH2)3-guanidino) = N=C(N)NCCCNCC(=O)O; Dap = NC[C@H](N)C(=O)O; Sar = CNCC(=O)O

Columns and labels:
mMC4R [1] = target: T1, mMC4R (Mus musculus, UniProt P56450); conditions: ± SEM; for mMC4R pA2: Example 1, antagonist, Schild analysis with NDP-MSH, <5.0 = no antagonist potency up to 10,000 nM
T1 sequence (P56450 whole entry): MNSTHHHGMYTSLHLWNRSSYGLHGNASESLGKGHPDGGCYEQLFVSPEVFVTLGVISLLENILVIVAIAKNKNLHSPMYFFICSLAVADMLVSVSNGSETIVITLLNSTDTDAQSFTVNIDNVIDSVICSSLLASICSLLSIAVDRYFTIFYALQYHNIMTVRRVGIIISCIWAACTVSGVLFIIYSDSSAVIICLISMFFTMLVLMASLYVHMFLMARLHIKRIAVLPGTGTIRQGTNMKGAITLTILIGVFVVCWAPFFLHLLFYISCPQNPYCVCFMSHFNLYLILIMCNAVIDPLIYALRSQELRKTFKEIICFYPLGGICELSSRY

mMC1R [2] = target: T2, mMC1R (Mus musculus, UniProt Q01727); assay: 125I-NDP-MSH competitive binding assay, transfected HEK293 cells, mMC1R; conditions: binding IC50 versus control 1 (Asn) or 2 (Dap)
T2 sequence (Q01727 whole entry): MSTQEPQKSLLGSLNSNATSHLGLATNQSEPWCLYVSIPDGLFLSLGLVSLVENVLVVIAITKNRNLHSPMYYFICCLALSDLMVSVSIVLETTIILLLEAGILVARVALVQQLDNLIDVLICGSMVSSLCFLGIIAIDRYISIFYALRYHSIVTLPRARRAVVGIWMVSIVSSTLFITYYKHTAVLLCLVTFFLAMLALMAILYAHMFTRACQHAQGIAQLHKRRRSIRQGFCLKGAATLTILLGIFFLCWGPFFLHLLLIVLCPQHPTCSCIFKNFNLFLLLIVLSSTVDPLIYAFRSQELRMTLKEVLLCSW

mMC3R [3] = target: T3, mMC3R (Mus musculus, UniProt P33033); conditions: for mMC3R pA2: antagonist, Schild analysis with NDP-MSH
T3 sequence (P33033 whole entry): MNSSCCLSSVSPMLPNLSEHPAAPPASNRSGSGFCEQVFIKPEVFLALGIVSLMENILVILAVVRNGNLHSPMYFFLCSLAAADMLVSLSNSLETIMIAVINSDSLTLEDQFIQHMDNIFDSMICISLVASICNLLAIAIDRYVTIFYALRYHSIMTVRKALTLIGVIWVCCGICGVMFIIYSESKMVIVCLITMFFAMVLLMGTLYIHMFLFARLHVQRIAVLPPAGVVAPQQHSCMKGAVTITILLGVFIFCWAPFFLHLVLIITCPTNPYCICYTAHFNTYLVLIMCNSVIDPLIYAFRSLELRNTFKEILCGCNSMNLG

hMC4R [4] = target: T4, hMC4R (Homo sapiens, UniProt P32245); assay: cAMP AlphaScreen bioassay, HEK293 cells stably expressing hMC4R; format: cell-based; set-up: expressed in transfected cells; conditions: for hMC4R pA2: antagonist pA2, Schild analysis with agonist NDP-MSH, ± SEM, <5.0 = no antagonist potency up to 10,000 nM; for Observed Inverse Agonism?: hMC4R, cAMP
T4 sequence (P32245 whole entry): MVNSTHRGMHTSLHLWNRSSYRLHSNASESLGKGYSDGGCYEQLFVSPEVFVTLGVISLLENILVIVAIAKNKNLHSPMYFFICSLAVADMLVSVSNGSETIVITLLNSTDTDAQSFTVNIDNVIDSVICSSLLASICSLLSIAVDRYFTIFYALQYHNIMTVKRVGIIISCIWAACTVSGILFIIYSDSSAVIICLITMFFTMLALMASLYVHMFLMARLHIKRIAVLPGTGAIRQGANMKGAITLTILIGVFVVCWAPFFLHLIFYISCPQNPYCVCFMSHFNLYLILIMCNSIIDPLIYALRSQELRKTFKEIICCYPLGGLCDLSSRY

hMC4R [5] = target: T4, hMC4R; assay: 125I-NDP-MSH competitive binding assay, transfected HEK293 cells, hMC4R; conditions: binding IC50 versus control 1 (Asn) or 2 (Dap)
mMC4R [6] = target: T1, mMC4R; assay: 125I-NDP-MSH competitive binding assay, transfected HEK293 cells, mMC4R; conditions: binding IC50 versus control 1 (Asn) or 2 (Dap)
mMC5R = mMC5R (Mus musculus, UniProt P41149); conditions: for mMC5R pA2: antagonist, Schild analysis with NDP-MSH, ± SEM
mMC5R, sequence (P41149 whole entry): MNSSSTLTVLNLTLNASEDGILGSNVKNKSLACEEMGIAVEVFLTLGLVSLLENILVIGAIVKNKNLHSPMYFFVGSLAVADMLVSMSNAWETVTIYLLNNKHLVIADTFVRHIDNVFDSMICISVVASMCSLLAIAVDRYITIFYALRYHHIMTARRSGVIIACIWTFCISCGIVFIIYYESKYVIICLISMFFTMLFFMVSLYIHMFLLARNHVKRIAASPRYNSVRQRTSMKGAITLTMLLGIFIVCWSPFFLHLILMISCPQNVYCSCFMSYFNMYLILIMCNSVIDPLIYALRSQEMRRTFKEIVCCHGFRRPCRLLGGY

mMC1R [7] = target: T2, mMC1R; assay: cAMP AlphaScreen bioassay, HEK293 cells stably expressing mMC1R; conditions: for mMC1R percent maximal stimulatory response: @ 100 μM, EC50 not determinable; for EC50: read-out: mMC1R EC50, ± SEM, >100,000 = no agonist activity up to 100 μM
mMC3R [8] = target: T3, mMC3R; assay: 125I-NDP-MSH competitive binding assay, transfected HEK293 cells, mMC3R; conditions: binding IC50 versus control 1 (Asn) or 2 (Dap)
[9] = Example 1, ± SEM, <5.0 = no antagonist potency up to 10,000 nM
[10] = Example 2, ± SEM, <5.5 = no antagonist potency up to 10,000 nM
[11] = Example 2, basal to plateau signal, sigmoidal dose-response
[12] = Example 2 (Table 7, first EC50 column)

C[C@@H]1NC(=O)[C@H](CC(N)=O)NC(=O)[C@H](Cc2ccccc2)NC(=O)[C@H](Cc2ccccc2)NC(=O)[C@H](CS)NC(=O)[C@@H]2CCCN2C(=O)[C@H]2CCCN2C(=O)[C@H](Cc2ccccc2)NC1=O [ZMK 3-18, c[Pro-Cys-Phe-Phe-Asn-Ala-Phe-DPro]] (cyclo(PCFFNAF[dP]))
mMC4R EC50 (nM) (mMC4R [1]; Example 1, agonist, >100,000 = no agonist activity up to 100 μM): unable to stimulate
mMC4R pA2 (mMC4R [1]): 5.9
mMC1R Fold Diff (mMC1R [2]): 3
mMC3R EC50 (nM) (mMC3R [3]; Example 1, agonist, ± SEM, >100,000 = no agonist activity up to 100 μM): unable to stimulate
hMC4R pA2 (hMC4R [4]): 5.8 and 5.8 ± 0.2
Observed Inverse Agonism? (hMC4R [4]): No
hMC4R Fold Diff (hMC4R [5]): 300
mMC4R Fold Diff (mMC4R [6]): 90
mMC5R pharmacology observed in agonist assay (Inverse Agonist) (mMC5R; Example 1): inverse agonist activity
mMC5R inverse agonist, percent change from basal (mMC5R; Example 1, @ 100 μM, no sigmoidal dose-response curve): −32%
mMC1R percent maximal stimulatory response (mMC1R [7]; Example 1, relative to NDP-MSH signal): 46%

CC(C)[C@@H]1NC(=O)[C@H](CN)NC(=O)[C@H](Cc2ccccc2)NC(=O)[C@H](Cc2ccccc2)NC(=O)[C@H](CCCNC(=N)N)NC(=O)[C@@H]2CCCN2C(=O)[C@H]2CCCN2C(=O)[C@H](Cc2ccccc2)NC1=O [ZMK 2-85, c[Pro-Arg-Phe-Phe-Dap-Val-Phe-DPro]]
mMC4R pA2 (mMC4R [1]): 7.5
mMC3R pA2 (mMC3R [3]; [9]): 6.1 and 6.1 ± 0.03
hMC4R pA2 (hMC4R [4]): 7.6 and 7.6 ± 0.06
Observed Inverse Agonism? (hMC4R [4]): Yes
mMC5R pA2 (mMC5R; Example 1, reported herein for the first time): 6.3 and 6.3 ± 0.03

C[C@@H]1NC(=O)[C@H](CN)NC(=O)[C@H](Cc2ccccc2)NC(=O)[C@H](Cc2ccccc2)NC(=O)[C@H](CS)NC(=O)[C@@H]2CCCN2C(=O)[C@H]2CCCN2C(=O)[C@H](Cc2ccccc2)NC1=O [ZMK 3-20, c[Pro-Cys-Phe-Phe-Dap-Ala-Phe-DPro]] (cyclo(PCFF[Dap]AF[dP]))
mMC1R Fold Diff (mMC1R [2]): 6
mMC3R Fold Diff (mMC3R [8]): 15
Observed Inverse Agonism? (hMC4R [4]): No
hMC4R agonist stimulation (hMC4R [4]; up to 100 μM concentrations): unable to stimulate
hMC4R Fold Diff (hMC4R [5]): 2100
mMC4R Fold Diff (mMC4R [6]): 5200
mMC1R stimulation of the receptor, % of the NDP-MSH control (mMC1R [7]; full agonist, maximal stimulation): 98%
EC50 (mMC1R [7]; Example 1, agonist): 4000 nM

C[C@@H]1NC(=O)[C@H](CC(N)=O)NC(=O)[C@H](Cc2ccccc2)NC(=O)[C@H](Cc2ccccc2)NC(=O)CN(CCCNC(=N)N)C(=O)[C@@H]2CCCN2C(=O)[C@H]2CCCN2C(=O)[C@H](Cc2ccccc2)NC1=O [MDE7-26-1c, c[Pro-NArg-Phe-Phe-Asn-Ala-Phe-DPro]] (cyclo(P[Gly(N-(CH2)3-guanidino)]FFNAF[dP]))
mMC1R pharmacology observed (Partial Agonist) (mMC1R [7]; Example 2): Partial
mMC1R partial agonist, percentage of activation relative to NDP-MSH (mMC1R [7]; Example 2, maximal signal): 50% NDP-MSH

C[C@@H]1NC(=O)[C@H](CN)NC(=O)[C@H](Cc2ccccc2)NC(=O)[C@H](Cc2ccccc2)NC(=O)[C@H](CCCNC(=N)N)NC(=O)[C@@H]2CCCN2C(=O)[C@H]2CCCN2C(=O)CN(Cc2ccccc2)C1=O [MDE8-108-7c, c[Pro-Arg-Phe-Phe-Dap-Ala-NPhe-DPro]]
mMC5R inverse agonist, percent decrease from basal (mMC5R): −10%

C[C@@H]1NC(=O)[C@H](CN)NC(=O)[C@H](Cc2ccccc2)NC(=O)CN(Cc2ccccc2)C(=O)[C@H](CCCNC(=N)N)NC(=O)[C@@H]2CCCN2C(=O)[C@H]2CCCN2C(=O)[C@H](Cc2ccccc2)NC1=O [MDE9-32c, c[Pro-Arg-NPhe-Phe-Dap-Ala-Phe-DPro]]
mMC3R pA2 (mMC3R [3]; [10]): 6.9 ± 0.3
mMC5R pharmacology observed (Partial Agonist / Inverse Agonist) (mMC5R; Example 2): Partial
mMC1R pharmacology observed (Partial Agonist) (mMC1R [7]; Example 2): Partial

C[C@@H]1NC(=O)[C@H](CN)NC(=O)CN(Cc2ccccc2)C(=O)[C@H](Cc2ccccc2)NC(=O)[C@H](CCCNC(=N)N)NC(=O)[C@@H]2CCCN2C(=O)[C@H]2CCCN2C(=O)[C@H](Cc2ccccc2)NC1=O [MDE9-93c, c[Pro-Arg-Phe-NPhe-Dap-Ala-Phe-DPro]]
mMC3R pA2 (mMC3R [3]; [10]): 7.1 ± 0.1
mMC5R pharmacology observed (Partial Agonist / Inverse Agonist) (mMC5R; Example 2): Inverse
mMC5R inverse agonist, percent decrease from basal (mMC5R; [11]): −10%
mMC1R pharmacology observed (Partial Agonist) (mMC1R [7]; Example 2): Partial

C[C@@H]1NC(=O)[C@H](CC(N)=O)NC(=O)[C@H](Cc2ccccc2)NC(=O)[C@H](Cc2ccccc2)NC(=O)[C@H](CCCNC(=N)N)NC(=O)[C@@H]2CCCN2C(=O)[C@H]2CCCN2C(=O)[C@H](Cc2ccccc2)NC1=O [MDE 6-82-3c, c[Pro-Arg-Phe-Phe-Asn-Ala-Phe-DPro]]
Observed Inverse Agonism? (hMC4R [4]): Yes

C[C@@H]1NC(=O)CN(CCN)C(=O)[C@H](Cc2ccccc2)NC(=O)[C@H](Cc2ccccc2)NC(=O)[C@H](CCCNC(=N)N)NC(=O)[C@@H]2CCCN2C(=O)[C@H]2CCCN2C(=O)[C@H](Cc2ccccc2)NC1=O [MDE9-111c, c[Pro-Arg-Phe-Phe-NDab-Ala-Phe-DPro]]
mMC5R inverse agonist, percent decrease from basal (mMC5R): −10%
mMC1R percent maximal stimulatory response (mMC1R [7]; Example 2): 60% @

C[C@@H]1NC(=O)[C@H](CC(N)=O)NC(=O)[C@H](Cc2ccccc2)NC(=O)[C@H](Cc2ccccc2)NC(=O)[C@H](Cc2c[nH]cn2)NC(=O)[C@@H]2CCCN2C(=O)[C@H]2CCCN2C(=O)[C@H](Cc2ccccc2)NC1=O [ZMK 2-96, c[Pro-His-Phe-Phe-Asn-Ala-Phe-DPro]] (cyclo(PHFFNAF[dP]))
mMC4R pA2 (mMC4R [1]): 5.3 and 5.3 ± 0.1
hMC4R pA2 (hMC4R [4]): 5.8 and 5.8 ± 0.2
Observed Inverse Agonism? (hMC4R [4]): Yes
hMC4R Fold Diff (hMC4R [5]): 300
mMC4R Fold Diff (mMC4R [6]): 300

C[C@@H]1NC(=O)[C@H](CC(N)=O)NC(=O)[C@H](Cc2ccccc2)NC(=O)CN(Cc2ccccc2)C(=O)[C@H](CCCNC(=N)N)NC(=O)[C@@H]2CCCN2C(=O)[C@H]2CCCN2C(=O)[C@H](Cc2ccccc2)NC1=O [MDE9-77c, c[Pro-Arg-NPhe-Phe-Asn-Ala-Phe-DPro]]
mMC3R pA2 (mMC3R [3]; [10]): 5.8 ± 0.1
mMC5R pharmacology observed (Partial Agonist / Inverse Agonist) (mMC5R; Example 2): Inverse
mMC5R inverse agonist, percentage change from basal (mMC5R; Example 2, @ 100 μM, no sigmoidal dose-response curve): −10% @
EC50 (mMC1R [7]; [12]): 240 nM

C[C@@H]1NC(=O)[C@H](CC(N)=O)NC(=O)[C@H](Cc2ccccc2)NC(=O)[C@H](Cc2ccccc2)NC(=O)[C@H](CCCNC(=N)N)NC(=O)[C@@H]2CCCN2C(=O)[C@H]2CCCN2C(=O)CN(Cc2ccccc2)C1=O [MDE7-26-5c, c[Pro-Arg-Phe-Phe-Asn-Ala-NPhe-DPro]]
mMC3R percent maximal stimulatory response (mMC3R [3]; Example 2, @ 100 μM): 60% @
mMC1R percent maximal stimulatory response (mMC1R [7]; Example 2): 85% @

C[C@@H]1NC(=O)[C@H](CC(N)=O)NC(=O)[C@H](Cc2ccccc2)NC(=O)[C@H](Cc2ccc(O)cc2)NC(=O)[C@H](CCCNC(=N)N)NC(=O)[C@@H]2CCCN2C(=O)[C@H]2CCCN2C(=O)[C@H](Cc2ccccc2)NC1=O [ZMK 2-110, c[Pro-Arg-Tyr-Phe-Asn-Ala-Phe-DPro]] (cyclo(PRYFNAF[dP]))
mMC4R pA2 (mMC4R [1]): 6.1 and 6.1 ± 0.03
mMC3R pA2 (mMC3R [3]; [9]): 5.8 and 5.8 ± 0.2
hMC4R pA2 (hMC4R [4]): 6.5 and 6.5 ± 0.2
Observed Inverse Agonism? (hMC4R [4]): Yes
hMC4R Fold Diff (hMC4R [5]): 2000
mMC4R Fold Diff (mMC4R [6]): 100
mMC5R pharmacology observed in agonist assay (Inverse Agonist) (mMC5R; Example 1): Inverse

CN1CC(=O)N[C@@H](Cc2ccccc2)C(=O)N2CCC[C@@H]2C(=O)N2CCC[C@H]2C(=O)N[C@@H](CCCNC(=N)N)C(=O)N[C@@H](Cc2ccccc2)C(=O)N[C@@H](Cc2ccccc2)C(=O)N[C@@H](CC(N)=O)C1=O [MDE7-26-4c, c[Pro-Arg-Phe-Phe-Asn-NAla-Phe-DPro]] (cyclo(PRFFN[Sar]F[dP]))
EC50 (mMC1R [7]; [12]): 1000 nM

C[C@@H]1NC(=O)[C@H](CC(N)=O)NC(=O)CN(Cc2ccccc2)C(=O)[C@H](Cc2ccccc2)NC(=O)[C@H](CCCNC(=N)N)NC(=O)[C@@H]2CCCN2C(=O)[C@H]2CCCN2C(=O)[C@H](Cc2ccccc2)NC1=O [MDE9-88c, c[Pro-Arg-Phe-NPhe-Asn-Ala-Phe-DPro]]
mMC3R pA2 (mMC3R [3]; [10]): 6.0 ± 0.1
mMC5R pharmacology observed (Partial Agonist / Inverse Agonist) (mMC5R; Example 2): Inverse
mMC5R pA2 (mMC5R; Example 2): 6.1 and 6.1 ± 0.1
mMC5R inverse agonist, percent decrease from basal (mMC5R; [11]): −10%
mMC1R pharmacology observed (Partial Agonist) (mMC1R [7]; Example 2): Partial
